Data: BigSolDB 2.1

CCCc1ncc(C[n+]2ccccc2C)c(N)n1.Cl.[Cl-]
solubility (mole fraction)
Details | 273.15 K | 278.15 K | 283.15 K | 288.15 K | 293.15 K | 298.15 K | 303.15 K | 308.15 K | 313.15 K
in 1,4-dioxane | – | – | – | 5.76e-05 | 7.08e-05 | 8.42e-05 | 9.99e-05 | 0.000115 | 0.000132
in acetone | 0.000227 | 0.000259 | 0.000291 | 0.000325 | 0.000359 | 0.000401 | 0.000444 | 0.000487 | 0.000533
in acetonitrile | 7.2e-06 | 9.3e-06 | 1.15e-05 | 1.42e-05 | 1.68e-05 | 1.98e-05 | 2.35e-05 | 2.79e-05 | 3.27e-05
in cyclohexanone | 0.000117 | 0.000146 | 0.000181 | 0.000217 | 0.000252 | 0.000287 | 0.000327 | – | –
in ethanol | 5.33e-05 | 6.8e-05 | 9.17e-05 | 0.000124 | 0.000159 | 0.000195 | 0.000232 | 0.000273 | 0.000319
in ethyl acetate | 2.48e-05 | 3.34e-05 | 4.3e-05 | 5.26e-05 | 6.41e-05 | 7.65e-05 | 8.91e-05 | 0.000104 | 0.00012
in isobutanol | 9.3e-06 | 1.3e-05 | 1.71e-05 | 2.18e-05 | 2.71e-05 | 3.33e-05 | 4.11e-05 | 4.98e-05 | 5.86e-05
in isopropanol | 1.12e-05 | 1.63e-05 | 2.25e-05 | 2.89e-05 | 3.83e-05 | 4.87e-05 | 6.13e-05 | 7.76e-05 | 9.49e-05
in methanol | 0.000272 | 0.000376 | 0.000476 | 0.00059 | 0.000722 | 0.000854 | 0.001 | 0.00115 | 0.0013
in n-butanol | 1.79e-05 | 2.34e-05 | 3.1e-05 | 3.89e-05 | 4.88e-05 | 6.01e-05 | 7.53e-05 | 9.25e-05 | 0.000109
in n-octanol | 2e-06 | 3.3e-06 | 4.9e-06 | 6.7e-06 | 9.5e-06 | 1.38e-05 | 1.86e-05 | 2.41e-05 | 3.01e-05
in n-propanol | 2.98e-05 | 4.12e-05 | 5.26e-05 | 6.51e-05 | 7.7e-05 | 9.09e-05 | 0.000106 | 0.000124 | 0.000142
